Results reported in paper PMC9246773, “Assessing the Activity of Antimicrobial Peptides Against Common Marine Bacteria Located in Rotifer (Brachionus plicatilis) Cultures” (Probiotics and Antimicrobial Proteins, 2022).
In brackets after ≈: the same amount, converted by molar mass. Non-standard residues stand in square brackets, D forms with d. Residues, ends and D or L forms follow the SMILES beside them.

Legend:
[1] = test system: MRSA and P. aeruginosa bacterial infections; conditions: MRSA and P. aeruginosa infections in mice and nematodes, respectively; ref [23], [64], [65]; cited from earlier work
Experimental: The MIC assay under high salt concentration identified these peptides as being effective against V. rotiferianus and T. discolor at a high peptide concentration (65 µg mL^−1), however, the two bacterial species were not identified in the control rotifer culture, and the reduction of their presence cannot be quantified. In relation to other AMP research, the majority of AMPs are currently teste ...

Shewanella sp. [2] = format: cell-based; conditions: 48 h
Outline: (§1)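 Broth microdilution MIC of peptides in MHB at 0‰ or 25‰ salinity (artificial sea salts); T. discolor in diluted MHB (1:7 with 25‰ seawater), and T. discolor and Pseudoalteromonas not tested at 0‰. Twofold dilutions 0.125–65 µg mL^−1, some in acetic acid/BSA; inoculum ~5 × 10^5 CFU mL^−1; duplicates.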

[3] = test system: Vibrio harveyi (ATCC 35084); format: cell-based; conditions: ATCC 35084, 48 h
Outline: as §1

Tenacibaculum discolor = format: cell-based; conditions: 48 h
Outline: as §1

Vibrio rotiferianus [4] = format: cell-based; conditions: 48 h
Outline: as §1

Vibrio harveyi [5] = format: cell-based; conditions: 48 h
Outline: as §1

Vibrio scophthalmi [6] = format: cell-based; conditions: 48 h
Outline: as §1

Pseudoalteromonas sp. = format: cell-based; conditions: 48 h
Outline: as §1

Vibrio alginolyticus [7] = format: cell-based; conditions: 48 h
Outline: as §1

[8] = test system: Escherichia coli (ATCC 25922); format: cell-based; conditions: ATCC 25922, 48 h
Outline: as §1

Shewanella sp. [9] = format: cell-based; conditions: 48 h; remark: listed apart in the source
Outline: (§2)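 Broth microdilution MIC of antimicrobial peptides in Mueller–Hinton broth made with artificial seawater (25‰) or deionised water (0‰), with or without acetic acid/BSA peptide diluent. Inoculum about 5 × 10^5 CFU mL^-1 from 0.5 McFarland suspensions; peptides 0.125 - 65µg mL^-1; 25 °C for 48 h; MIC = lowest concentration without visible growth.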

[10] = test system: Vibrio harveyi (ATCC 35084); format: cell-based; conditions: ATCC 35084, 48 h; remark: listed apart in the source
Outline: as §2

Vibrio rotiferianus [11] = format: cell-based; conditions: 48 h; remark: listed apart in the source
Outline: as §2

Vibrio harveyi [12] = format: cell-based; conditions: 48 h; remark: listed apart in the source
Outline: as §2

Vibrio scophthalmi [13] = format: cell-based; conditions: 48 h; remark: listed apart in the source
Outline: as §2

Vibrio alginolyticus [14] = format: cell-based; conditions: 48 h; remark: listed apart in the source
Outline: as §2

[15] = test system: Escherichia coli (ATCC 25922); format: cell-based; conditions: ATCC 25922, 48 h; remark: listed apart in the source
Outline: as §2

[16] = Test whether the AMPs precipitated in MHB and required acetic acid adjustments; format: physicochemical; conditions: MIC two or more dilutions higher without acetic acid than with acetic acid = requires acetic acid adjustments; MHB 0‰
Experimental: The protocol was followed to determine the minimum inhibitory concentration (MIC) of the selected peptides. Two MIC assays were performed, firstly to determine whether each peptide precipitated in MHB and thereby required acetic acid adjustments (supplementary materials) and secondly, to determine the antimicrobial activity of each peptide in artificial seawater (25‰). Peptide stock solutions (1.3 mg mL^−1) were made by diluting the peptides in sterile deionised water. MHB was made with deionised water to reach a concentration of approaching 0‰ and artificial sea salts (Sigma-Aldrich® S9883) to reach a salinity of 25‰.
A broth microdilution protocol was followed to test whether the AMPs precipitated in MHB. The isolates T. discolor and Pseudoalteromonas were excluded from this assay because they required marine salts for growth. The peptides HHC10 and HHC36 previously required acetic acid adjustments according to [63] and were not trialled in this assay. To test if peptides required acetic acid, each peptide was diluted 1:2 in acetic acid (0.02% acetic acid w/v, containing 0.4% BSA) solution. […] The 96-well plates were incubated at 25 °C and read at 24 and 48 hours. The MIC was visually determined using a Sensititre™ Vizion™ Digital MIC Viewing System (Thermo Scientific™), and the lowest AMP concentration that had no bacterial growth was recorded as the MIC after 48 hours. […]

SMILES: CC[C@@H](C)[C@@H](NC(=O)[C@@H](C)NC(=O)[C@@H](CCCNC(=N)N)NC(=O)[C@@H](Cc1c[nH]c2ccccc12)NC(=O)[C@@H](CCC(N)=O)NC(=O)[C@H](N)C(C)C)C(=O)N[C@H](CCCNC(=N)N)C(=O)N[C@@H](C(=O)N[C@H](CCCNC(=N)N)C(=O)N[C@@H](C(=O)N[C@@H](C(=O)N[C@H](CCCNC(=N)N)C(N)=O)[C@H](C)CC)C(C)C)C(C)C [DJK5] (H-[dV][dQ][dW][dR][dA][dI][dR][dV][dR][dV][dI][dR]-NH2; N-terminus and C-terminus assumed)
- reduction of bacterial infections in terrestrial organisms [1]: successfully reduced
- MIC Shewanella sp., salinity 0‰ (Shewanella sp. [2]): 2.03 µg/mL (≈ 1.31 µM)
- MIC Shewanella sp., salinity 25‰ (Shewanella sp. [2]): > 65 µg/mL
- MIC V. harveyi ATCC 35084, salinity 0‰ [3]: 2.03 µg/mL (≈ 1.31 µM)
- MIC V. harveyi ATCC 35084, salinity 25‰ [3]: > 65 µg/mL
- MIC T. discolor, salinity 25‰ (Tenacibaculum discolor): > 65 µg/mL
- MIC V. rotiferianus, salinity 0‰ (Vibrio rotiferianus [4]): 1.02 µg/mL (≈ 0.658 µM)
- MIC V. rotiferianus, salinity 25‰ (Vibrio rotiferianus [4]): > 65 µg/mL
- MIC V. harveyi, salinity 0‰ (Vibrio harveyi [5]): 4.06 µg/mL (≈ 2.62 µM)
- MIC V. harveyi, salinity 25‰ (Vibrio harveyi [5]): > 65 µg/mL
- MIC V. scophthalmi, salinity 0‰ (Vibrio scophthalmi [6]): 0.51 µg/mL (≈ 0.329 µM)
- MIC V. scophthalmi, salinity 25‰ (Vibrio scophthalmi [6]): > 65 µg/mL
- MIC Pseudoalteromonas sp., salinity 25‰ (Pseudoalteromonas sp.): > 65 µg/mL
- MIC V. alginolyticus, salinity 0‰ (Vibrio alginolyticus [7]): 4.06 µg/mL (≈ 2.62 µM)
- MIC V. alginolyticus, salinity 25‰ (Vibrio alginolyticus [7]): > 65 µg/mL
- MIC E. coli ATCC 25922, salinity 0‰ [8]: 2.03 µg/mL (≈ 1.31 µM)
- MIC E. coli ATCC 25922, salinity 25‰ [8]: > 65 µg/mL
- MIC Shewanella sp., Acetic (Shewanella sp. [9]): 1.02 µg/mL (≈ 0.658 µM)
- MIC Shewanella sp., No acetic (Shewanella sp. [9]): 1.02 µg/mL (≈ 0.658 µM)
- MIC V. harveyi ATCC 35084, Acetic [10]: 4.06 µg/mL (≈ 2.62 µM)
- MIC V. harveyi ATCC 35084, No acetic [10]: 2.03 µg/mL (≈ 1.31 µM)
- MIC V. rotiferianus, Acetic (Vibrio rotiferianus [11]): 1.02 µg/mL (≈ 0.658 µM)
- MIC V. rotiferianus, No acetic (Vibrio rotiferianus [11]): 1.02 µg/mL (≈ 0.658 µM)
- MIC V. harveyi, Acetic (Vibrio harveyi [12]): 2.03 µg/mL (≈ 1.31 µM)
- MIC V. harveyi, No acetic (Vibrio harveyi [12]): 4.06 µg/mL (≈ 2.62 µM)
- MIC V. scophthalmi, Acetic (Vibrio scophthalmi [13]): 0.51 µg/mL (≈ 0.329 µM)
- MIC V. scophthalmi, No acetic (Vibrio scophthalmi [13]): 0.51 µg/mL (≈ 0.329 µM)
- MIC V. alginolyticus, Acetic (Vibrio alginolyticus [14]): 4.06 µg/mL (≈ 2.62 µM)
- MIC V. alginolyticus, No acetic (Vibrio alginolyticus [14]): 4.06 µg/mL (≈ 2.62 µM)
- MIC E. coli ATCC 25922, Acetic [15]: 4.06 µg/mL (≈ 2.62 µM)
- MIC E. coli ATCC 25922, No acetic [15]: 8.13 µg/mL (≈ 5.24 µM)
- requirement for acetic acid (precipitation in MHB) [16]: did not
